Source: publication PMC8981238, “C-type cytochrome-initiated reduction of bacterial lytic polysaccharide monooxygenases” (Biochemical Journal, 2021)

Target: T1, CfAA10 (Cellulomonas fimi, UniProt F4H6A3)
T1 construct: gene Celf_0270; apparently with its C-terminal CBM (truncation told only for the C. japonicus enzyme)
Assay: Amplex Red / horseradish peroxidase coupled H2O2 production, initial rates
Type: biochemical
Conditions: reductant varied, no polysaccharide, O2 from air, 50 mM sodium phosphate pH 6.0, room temperature, 2 µM LPMO

T1 sequence (F4H6A3 entry or part of it): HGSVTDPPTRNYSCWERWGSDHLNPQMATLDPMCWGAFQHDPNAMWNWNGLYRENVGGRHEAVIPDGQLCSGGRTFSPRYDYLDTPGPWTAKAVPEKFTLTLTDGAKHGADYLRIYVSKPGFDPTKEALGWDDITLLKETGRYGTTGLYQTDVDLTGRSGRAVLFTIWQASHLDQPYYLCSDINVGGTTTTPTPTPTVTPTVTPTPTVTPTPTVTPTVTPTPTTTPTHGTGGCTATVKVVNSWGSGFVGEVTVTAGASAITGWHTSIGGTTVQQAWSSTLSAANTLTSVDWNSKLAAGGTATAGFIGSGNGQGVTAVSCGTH

O=C1O[C@H]([C@@H](O)CO)C(O)=C1O [ascorbate]
KM: KM is consistently lower when CjX183 is used as the reductant compared with ascorbate
